What was measured:
H727 cells = assay: Inhibition of KRas-mediated phosphorylation of ERK (Cisbio HTRF pERK), H727 cells; assay type: cell-based; conditions: Homo sapiens, NCI-H727, 3 h, 3 hr compound incubation, Cisbio pERK HTRF
ASPC1 cells = assay: Inhibition of KRas-mediated phosphorylation of ERK (Cisbio HTRF pERK), ASPC1 cells; assay type: cell-based; conditions: Homo sapiens, ASPC1, 3 h, AsPC-1 cells; 3 hr compound incubation; Cisbio pERK HTRF
KRas G12R = KRas G12R (Homo sapiens, UniProt P01116, G12R); assay: biochemical; conditions: Binding to KRas (IC50 nM) G12R, TR-FRET displacement, KRas G12R
Chain of KRas G12R (P01116 1-169 isoform P01116-2 G12R): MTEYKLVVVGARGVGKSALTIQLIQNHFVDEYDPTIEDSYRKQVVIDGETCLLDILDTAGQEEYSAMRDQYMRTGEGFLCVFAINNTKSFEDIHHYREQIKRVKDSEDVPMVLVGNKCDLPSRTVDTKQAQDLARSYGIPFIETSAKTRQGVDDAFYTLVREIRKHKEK

KRas G12D = KRas G12D (Homo sapiens, UniProt P01116, G12D); assay: biochemical; conditions: Binding to KRas (IC50 nM) G12D, TR-FRET displacement, KRas G12D
Chain of KRas G12D (P01116 1-169 isoform P01116-2 G12D): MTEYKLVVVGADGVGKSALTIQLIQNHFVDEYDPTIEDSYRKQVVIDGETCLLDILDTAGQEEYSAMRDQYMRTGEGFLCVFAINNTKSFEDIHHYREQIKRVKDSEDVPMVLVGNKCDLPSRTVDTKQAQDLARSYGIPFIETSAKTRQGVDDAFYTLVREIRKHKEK

KRas G12V = KRas G12V (Homo sapiens, UniProt P01116, G12V); assay: biochemical; conditions: Binding to KRas (IC50 nM) G12V, TR-FRET displacement, KRas G12V
Chain of KRas G12V (P01116 1-169 isoform P01116-2 G12V): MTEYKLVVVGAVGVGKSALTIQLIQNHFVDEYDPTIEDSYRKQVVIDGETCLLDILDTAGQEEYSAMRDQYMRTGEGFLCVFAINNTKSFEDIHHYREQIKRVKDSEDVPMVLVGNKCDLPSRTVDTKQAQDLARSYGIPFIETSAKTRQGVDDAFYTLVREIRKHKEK

Row | Compound | IC50 (H727 cells) [nM] | IC50 (ASPC1 cells) [nM] | IC50 (KRas G12R) [nM] | IC50 (KRas G12D) [nM] | IC50 (KRas G12V) [nM]
1 | CCCCCCCCCCN(C)C(=O)c1cc2n(n1)CCCN(c1nc(OC[C@@]34CCCN3C[C@H](F)C4)nc3c1CCN(c1cc(O)cc4ccc(F)c(CC)c14)C3)C2 [Example 266, N-decyl-5-(7-(8-ethyl-7-fluoro-3-hydroxynaphthalen-1-yl)-2-(((2R,7aS)-2-fluorohexahydro-1H-pyrrolizin-7a-yl)methoxy)-5,6,7,8-tetrahydropyrido[3,4-d]pyrimidin-4-yl)-N-methyl-5,6,7,8-tetrahydro-4H-pyrazolo[1,5-a][1,4]diazepine-2-carboxamide] | 1760 | 787 | 254 | 133 | 104
2 | CCCCCCCCCCNC(=O)c1cc2n(n1)CCCN(c1nc(OC[C@@]34CCCN3C[C@H](F)C4)nc3c1CCN(c1cc(O)cc4ccc(F)c(CC)c14)C3)C2 [Example 267, N-decyl-5-(7-(8-ethyl-7-fluoro-3-hydroxynaphthalen-1-yl)-2-(((2R,7aS)-2-fluorohexahydro-1H-pyrrolizin-7a-yl)methoxy)-5,6,7,8-tetrahydropyrido[3,4-d]pyrimidin-4-yl)-5,6,7,8-tetrahydro-4H-pyrazolo[1,5-a][1,4]diazepine-2-carboxamide] | 3950 | 3620 | 256 | 148 | 123
3 | CCc1c(F)ccc2cc(O)cc(N3CCc4c(nc(OC[C@@]56CCCN5C[C@H](F)C6)nc4N4CCOCC(P(C)(C)=O)C4)C3)c12 (stereo partly drawn) [Example 281, (4-(7-(8-ethyl-7-fluoro-3-hydroxynaphthalen-1-yl)-2-(((2R,7aS)-2-fluorotetrahydro-1H-pyrrolizin-7a(5H)-yl)methoxy)-5,6,7,8-tetrahydropyrido[3,4-d]pyrimidin-4-yl)-1,4-oxazepan-6-yl)dimethylphosphine oxide] | 4440 | > 10000 | 11 | 31 | 6
4 | CCc1c(F)ccc2cc(O)cc(N3CCc4c(nc(OC[C@@]56CCCN5C[C@H](F)C6)nc4N4CCCn5nc(N(C(C)C)S(C)(=O)=O)cc5C4)C3)c12 [Example 285, N-(5-(7-(8-ethyl-7-fluoro-3-hydroxynaphthalen-1-yl)-2-(((2R,7aS)-2-fluorohexahydro-1H-pyrrolizin-7a-yl)methoxy)-5,6,7,8-tetrahydropyrido[3,4-d]pyrimidin-4-yl)-5,6,7,8-tetrahydro-4H-pyrazolo[1,5-a][1,4]diazepin-2-yl)-N-isopropylmethanesulfonamide] | > 10000 | > 10000 | 773 | 563 | 886
5 | CCc1c(F)ccc2cc(O)cc(N3CCc4c(nc(OC[C@@]56CCCN5C[C@H](F)C6)nc4N4CCNc5cc(Br)ccc5C4)C3)c12 [Example 348, 4-(4-(8-bromo-1,2,3,5-tetrahydro-4H-benzo[e][1,4]diazepin-4-yl)-2-(((2R,7aS)-2-fluorotetrahydro-1H-pyrrolizin-7a(5H)-yl)methoxy)-5,8-dihydropyrido[3,4-d]pyrimidin-7(6H)-yl)-5-ethyl-6-fluoronaphthalen-2-ol] | > 10000 | > 10000 | 43000 | 83300 | 38500
6 | CCc1c(F)ccc2cc(O)cc(N3CCc4c(nc(OC[C@@]56CCCN5C[C@H](F)C6)nc4NCC4NC(=O)NC4=O)C3)c12 (stereo partly drawn) [Example 377, 5-(((7-(8-ethyl-7-fluoro-3-hydroxynaphthalen-1-yl)-2-(((2R,7aS)-2-fluorohexahydro-1H-pyrrolizin-7a-yl)methoxy)-5,6,7,8-tetrahydropyrido[3,4-d]pyrimidin-4-yl)amino)methyl)imidazolidine-2,4-dione] | 677 | 2340 | 4 | 4 | < 2
7 | CCc1c(F)ccc2cc(O)cc(N3CCc4c(nc(OC[C@@]56CCCN5C[C@H](F)C6)nc4NCc4cc(C(=O)N(C)C)nn4C)C3)c12 [Example 399, 5-(((7-(8-ethyl-7-fluoro-3-hydroxynaphthalen-1-yl)-2-(((2R,7aS)-2-fluorohexahydro-1H-pyrrolizin-7a-yl)methoxy)-5,6,7,8-tetrahydropyrido[3,4-d]pyrimidin-4-yl)amino)methyl)-N,N,1-trimethyl-1H-pyrazole-3-carboxamide] | 896 | 513 | 8 | 3 | 4
8 | CCc1c(F)ccc2cc(O)cc(N3CCc4c(nc(OC[C@@]56CCCN5C[C@H](F)C6)nc4N4CCCC5(CCNC5=O)C4)C3)c12 (stereo partly drawn) [Example 401, 7-(7-(8-ethyl-7-fluoro-3-hydroxynaphthalen-1-yl)-2-(((2R,7aS)-2-fluorohexahydro-1H-pyrrolizin-7a-yl)methoxy)-5,6,7,8-tetrahydropyrido[3,4-d]pyrimidin-4-yl)-2,7-diazaspiro[4.5]decan-1-one] | 1410 | 1730 | 10 | 59 | 22
9 | CCc1c(F)ccc2cc(O)cc(N3CCc4c(nc(OC[C@@]56CCCN5C[C@H](F)C6)nc4N4CCCc5occc5C4)C3)c12 [Example 423, 4-(4-(7,8-dihydro-4H-furo[3,2-c]azepin-5(6H)-yl)-2-(((2R,7aS)-2-fluorohexahydro-1H-pyrrolizin-7a-yl)methoxy)-5,6-dihydropyrido[3,4-d]pyrimidin-7(8H)-yl)-5-ethyl-6-fluoronaphthalen-2-ol] | 1970 | 4950 | 26 | 396 | 42
10 | O=C1NCC12CCCN(c1nc(OC[C@@]34CCCN3C[C@H](F)C4)nc3c1CCN(c1cc(O)cc4ccc(F)c(Br)c14)C3)C2 (stereo partly drawn) [Example 482, 6-(7-(8-bromo-7-fluoro-3-hydroxynaphthalen-1-yl)-2-(((2R,7aS)-2-fluorohexahydro-1H-pyrrolizin-7a-yl)methoxy)-5,6,7,8-tetrahydropyrido[3,4-d]pyrimidin-4-yl)-2,6-diazaspiro[3.5]nonan-1-one] | 1200 | 1460 | 5 | 3 | < 2
11 | CCc1c(F)ccc2cc(O)cc(N3CCc4c(nc(N5CC(N)C5)nc4N4CCC[C@@](C)(O)C4)C3)c12 [Example 486, (R)-1-(2-(3-aminoazetidin-1-yl)-7-(8-ethyl-7-fluoro-3-hydroxynaphthalen-1-yl)-5,6,7,8-tetrahydropyrido[3,4-d]pyrimidin-4-yl)-3-methylpiperidin-3-ol] |  |  | 1160 | 755 | 886
12 | CCc1c(F)ccc2cc(O)cc(N3CCc4c(nc(OC[C@@]56CCCN5C[C@H](F)C6)nc4N4CCCC5(CCCC5)C4)C3)c12 [Example 489, 5-ethyl-6-fluoro-4-(2-(((2R,7aS)-2-fluorohexahydro-1H-pyrrolizin-7a-yl)methoxy)-4-(7-azaspiro[4.5]decan-7-yl)-5,6-dihydropyrido[3,4-d]pyrimidin-7(8H)-yl)naphthalen-2-ol] |  |  | 553 | 761 | 702
13 | CCc1c(F)ccc2cc(O)cc(N3CCc4c(nc(OC[C@@]56CCCN5C[C@H](F)C6)nc4N4CCCC5(C4)NC(=O)N(C)C5=O)C3)c12 (stereo partly drawn) [Example 644, 7-(7-(8-ethyl-7-fluoro-3-hydroxynaphthalen-1-yl)-2-(((2R,7aS)-2-fluorotetrahydro-1H-pyrrolizin-7a(5H)-yl)methoxy)-5,6,7,8-tetrahydropyrido[3,4-d]pyrimidin-4-yl)-3-methyl-1,3,7-triazaspiro[4.5]decane-2,4-dione] |  |  | 13 | 16 | 14

From patent publication US20250368649A1, “TETRAHYDROPYRIDOPYRIMIDINE PAN-KRAS INHIBITORS” (Mirati Therapeutics, Inc., priority 2022, published 2025)
